Assay results reported in patent publication US4022834A, “Antibacterially active hexamethylene-bis-biguanides” (priority 1972, dated 1977).
Structures can show the parent of a compound that is named as a salt. Where two headings read alike, the source gives them in different places.

Assays:
[1] = Acute peroral toxicity in mice; conditions: mouse, in vivo, po
plaque [2] = assay: Plaque-index on test persons after mouth rinsing; format: in vivo; conditions: rinsing with 10 ml of 1,1 mM solution 3 times daily for 3 days; scale 0 (no plaque) to 3 (clearly visible plaque marginally)
Method: Plaque-index on test persons after rinsing with 10 ml of 1,1 mM solution 3 times daily for 3 days. The rinsing was during this time the only type of oral hygiene used.
Plaque-index, which is a recognized measure of plaque-inhibiting property, runs from 0 (no plaque) to 3 (clearly visible plaque marginally).

Staph. aureus = assay: Inhibition of growth in aqueous solution and subcultivation in liquid medium, Staph. aureus; format: cell-based; conditions: Reference: Chlorohexidine=1
Description: (§1) Inhibition of growth in aqueous solution and subcultivation in liquid medium. Reference: Chlorohexidine=1.

Aerobacter aerogenes = assay: Inhibition of growth in aqueous solution and subcultivation in liquid medium, Aerobacter aerogenes; format: cell-based; conditions: Reference: Chlorohexidine=1
Description: as §1

human epithelial cells = assay: Cytotoxic effect on human epithelial cells in vitro; format: cell-based
Method: Cytotoxic effect on human epithelial cells in vitro after treatment for 5 minutes at 37° C. Reference: Chlorohexidine=1.

bacteria = conditions: cited from earlier work
plaque [3] = assay: Plaque-index on test persons after mouth rinsing; format: in vivo; conditions: rinsing with 1,6 mM chlorohexidine under the same conditions; scale 0 to 3
plaque [4] = conditions: rinsing of the mouth; cited from earlier work
[5] = treatment for 5 minutes at 37° C., Reference: Chlorohexidine=1

Compound	LD50 [1] [mg/kg]	Plaque index (plaque [2])	Inhibition of growth relative to chlorohexidine (Staph. aureus)	Inhibition of growth relative to chlorohexidine (Aerobacter aerogenes)	Cytotoxic effect relative to chlorohexidine (human epithelial cells)	Cytotoxic effect relative to chlorohexidine (human epithelial cells; [5])	Toxicity compared with chlorohexidine (in words) (human epithelial cells; human epithelial cells in vitro)	Antibacterial activity (in words) (bacteria)	Plaque index (plaque [3])	Effect against gingivitis and caries (in words) (plaque [4])	Inhibition of plaque formation (in words) (plaque [4])
[H]/N=C(\N/C(=N/[H])NCCCCCCNC(=N)NC(=N)Nc1ccc(Cl)cc1)Nc1ccc(Cl)cc1 [Chlorohexidine-digluconate, reference compound]	1800										
CC(C)CCCC(C)NC(=N)NC(=N)NCCCCCCNC(=N)NC(=N)NC(C)CCCC(C)C (stereo not shown) [Compound 1, 1,1'-hexamethylene-bis-[5-(1,5-dimethylhexyl)biguanide]dihydrochloride]	1690	0,36	4	16							
N=C(NCCCCCCNC(=N)NC(=N)N1CC2CCC(CC2)C1)NC(=N)N1CC2CCC(CC2)C1 [Compound 2]		0,58	1	1	1/8						
N=C(NCCCCCCNC(=N)NC(=N)NCC1CCCCC1)NC(=N)NCC1CCCCC1 [Compound 3]		0,19	2	8		1/2					
N=C(NCCCCCCNC(=N)NC(=N)NC12CC3CC(CC(C3)C1)C2)NC(=N)NC12CC3CC(CC(C3)C1)C2 [Compound 4, 1,1'-hexamethylene-bis-[5-(1-adamantyl)biguanide]dihydrochloride]	2830	0,36	16	8							
N=C(NCCCCCCNC(=N)NC(=N)NC1CC2CCC1C2)NC(=N)NC1CC2CCC1C2 (stereo not shown) [Compound 5, 1,1'-hexamethylene-bis-[5-(2-endonorbornyl]biguanide)-dihydrochloride]		0,50	1/2	1/8		1/8					
CCCCCC(C)NC(=N)NC(=N)NCCCCCCNC(=N)NC(=N)NC(C)CCCCC.Cl.Cl (stereo not shown) [Compound 6, 1,1'-hexamethylene-bis-[5-(1-methylhexyl)biguanide]-dihydrochloride]		0,27	4	1		1					
CCC(C)CC(C)NC(=N)NC(=N)NCCCCCCNC(=N)NC(=N)NC(C)CC(C)CC (stereo not shown) [Compound 7, 1,1'-hexamethylene-bis-[5-(1,3-dimethylpenthyl)-biguanide]-dihydrochloride]		0,29	8	1		1					
CC(C)CCC(C)NC(=N)NC(=N)NCCCCCCNC(=N)NC(=N)NC(C)CCC(C)C.Cl.Cl (stereo not shown) [Compound 8, 1,1'-hexamethylene-bis-[5-(1,4-dimethylpentyl)biguanide]-dihydrochloride]		0,70	8	1		1					
CCCCC(CC)CNC(=N)NC(=N)NCCCCCCNC(=N)NC(=N)NCC(CC)CCCC (stereo not shown) [Compound 9, 1,1'-hexamethylene-bis-[5-(2-ethylhexyl)biguanide], reference compound]		0,52	8	2		4	much more toxic	known for having antibacterial activity			
N=C(NCCCCCCNC(=N)NC(=N)Nc1ccc(Cl)cc1)NC(=N)Nc1ccc(Cl)cc1 [chlorohexidine, 1,1'-hexamethylene-bis-[5-(4-chlorophenyl)biguanide]]								antibacterial effect	0,75	prophylactic effect against gingivitis and caries	marked inhibiting effect on the formation of plaque
